From patent publication US7067538B2, “MCP-1 receptor antagonists and methods of use thereof” (Warner-Lambert Company, LLC, priority 2002, dated 2006)
Like-named read-outs stand apart in the source and are kept apart here.

Key:
[1] = Pharmacokinetics in rats after intravenous infusion and oral gavage; format: in vivo
Protocol: The compound of Example 4, 3-[Bis-(4-chloro-phenyl)-methanesulfonyl]-1,1,1-trifluoro-propan-2-one, was administered to rats via a 5-minute intravenous infusion at 0.175 mg/mL (solution in 5% DMA/95% Tris base (50 mM in water)) and oral gavage at 0.35 mg/mL (suspension in 5% (w/v) PEG 200/95% (w/v) methylcellulose (0.5%)). Following intravenous administration of a 0.5 mg/kg dose to rats, the systemic clearance was about 0.06 mL/min/kg and the volume of distribution was about 0.2 L/kg. […] Following a 1 mg/kg oral dose, the compound of Example 4 was absorbed in rats with mean peak plasma levels of 6 μg/mL occurring approximately 2.5 hours after dosing. Based on the ratio of the dose-normalized area under the plasma concentration-time curve from 0 to 96 hour after oral and intravenous doses, the absolute oral bioavailability averaged about 100%. […]

[2] = Plasma stability in rat plasma and acidified rat plasma (LC/MS); format: in vitro ADME; conditions: 1 μg/mL, 1 hour at room temperature or 37° C.
Protocol: Plasma stability studies were conducted on (Di-p-tolyl-methanesulfonyl)-acetic acid methyl ester and [bis-(4-chloro-phenyl)-methanesulfonyl]-acetic acid methyl ester. Briefly, these compounds (at a final concentration of 1 μg/mL) were separately inclubated in rat plasma and acidified rat plasma for 1 hour at room temperature or 37° C.

[3] = biological target: T1, MCP-1 receptor (300-19 cell membranes) (Homo sapiens, UniProt P41597); test: Inhibition of binding of 125I-MCP-1 to 300-19 cell membranes
T1 construct: host or cells: 300-19 cells (membrane preparation)
T1 sequence (P41597 whole entry): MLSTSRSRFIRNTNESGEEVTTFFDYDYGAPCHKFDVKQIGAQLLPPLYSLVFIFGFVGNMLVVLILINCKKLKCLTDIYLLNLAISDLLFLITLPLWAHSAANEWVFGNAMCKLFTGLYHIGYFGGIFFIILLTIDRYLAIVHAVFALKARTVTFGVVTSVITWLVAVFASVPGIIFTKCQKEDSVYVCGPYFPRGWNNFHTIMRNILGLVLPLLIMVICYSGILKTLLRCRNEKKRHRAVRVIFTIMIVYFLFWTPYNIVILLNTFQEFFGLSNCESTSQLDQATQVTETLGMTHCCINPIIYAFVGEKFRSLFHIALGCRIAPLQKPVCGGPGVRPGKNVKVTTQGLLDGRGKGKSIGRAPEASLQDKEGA
Protocol: Compounds were also assayed for their ability to inhibit the binding of radiolabeled MCP-1 to cell membranes. The materials and methods are set out below.
Membrane Preparation. 300-19 cells were harvested by centrifugation and washed with PBS (Dulbecco's phosphate-buffered saline w/o Ca and Mg). Cells were frozen at −80° C. overnight then resuspensed in ice cold lysis buffer (5 mM HEPES, 2 mM EDTA, 10 μg/mL of leupeptin, aprotinin, and chymostatin, and 200 μg/mL PMSF). The cell suspension was centrifuged at 1,000 rpm for 10 minutes and the supernatant was transferred and centrifuged at 14,000 rpm for 45 minutes at 4° C. then discarded. The resulting pellet was resuspended in stock buffer (10 mM HEPES, 300 mM sucrose, 20 μg/mL of leupeptin, aprotinin, and chymostatin, and 200 μg/mL PMSF), aliquoted, and frozen at −80° C. until use. Typical binding assays used 1.0 μg/well protein.
Prepared membranes were resuspended in binding buffer (50 mM Tris, 10 mM MgCl2, 1 mM EDTA pH 7.4) at 10 μg/mL protein. Membranes (1.0 μg/well) were incubated with ^125I-MCP-1 (0.15 nM) in the absence or presence of unlabeled chemokine (465 nM) or a compound of Examples 1–11, 14, 16, 19, 22, 27–30, 33–34, or [bis-(4-chloro-phenyl)-methanesulfonyl]-acetic acid methyl ester (0.001 μM–40 μM) for 3 hours at room temperature in a 96-well plate (total volume 250 μL). The reaction was terminated by filtration using a 96-well plate harvester (Packard Filtermate 196 Harvester). Filters (Packard GF/C) were prewet with 0.3% PEI containing 0.5% BSA and washed 5 times with wash buffer (DPBS, 0.3 MnCl2, and 0.25% BSA) prior to reaction termination. After terminating the reaction, filters were washed 6 times with wash buffer, and allowed to dry overnight. Scintillation fluid (Packard's Micro Scint 20) was added to each well and radioactivity bound was determined by liquid scintillation spectrometry. Nonspecific binding was determined in the presence of 465 nM unlabeled MCP-1. The IC50's (μM) of the inhibition of the binding of the iodinated MCP-1 are set out in Table 2.

[4] = test system: MCP-1 response in THP-1 cells; test: Calcium flux in THP-1 cells stimulated with human MCP-1 (FLIPR); format: cell-based; conditions: read-out: Calcium Flux IC50
Protocol: Compounds of were evaluated for their effect on calcium flux using methodology known in the art, e.g., Neote et al., Cell 1993, 72:415–425. Briefly, THP-1 cells were incubated with the fluorescence dye FLUO-4 for 1 hour, the cells were washed after this loading period, resuspended in HANKs buffer, and loaded into a 384-well plate. The cells were then incubated in the presence of a compound of Example 1–12, 14, 18, 22–23, 27–28, 30, or [bis-(4-chloro-phenyl)-methanesulfonyl]-acetic acid methyl ester. After a 30-minute incubation period, the cells were stimulated with 33 nM human MCP-1 and the calcium flux response recorded and quantified with a FLIPR^384® (384-well Fluorometric Imaging Plate Reader) ([…], Sunnyvale, Calif.). The IC50's (μM) of the inhibition of the maximal MCP-1 response are set out in Table 1.

[5] = 300-19 cell membranes 1.0 μg/well, 125I-MCP-1 0.15 nM, 3 hours at room temperature, read-out: IC50 of the inhibition of the binding of the iodinated MCP-1
[6] = 0.5 h, THP-1 cells, 30-minute incubation, stimulated with 33 nM human MCP-1, inhibition of the maximal MCP-1 response

Structure (SMILES) | compound remaining after incubation in plasma [2] | melting point | IC50 [3, 5] | bioavailability ([1]; rat, in vivo) | half-life ([1]; rat, in vivo) | IC50 [4, 6] | mean peak plasma levels ([1]; rat, in vivo, po, 5 mg/kg) | time of peak plasma levels after dosing ([1]; rat, in vivo, po, 5 mg/kg) | also measured
COC(=O)CS(=O)(=O)C(c1ccc(C)cc1)c1ccc(C)cc1 [(Di-p-tolyl-methanesulfonyl)-acetic acid methyl ester, reference compound] | below the lower limit of quantitation | – | – | – | – | – | – | – | plasma concentrations after intravenous or oral administration ([1]; rats, 1 mg/kg intravenous infusion or 5 mg/kg oral gavage, LC/MS): below the lower limit of quantitation
O=C(CS(=O)(=O)C(c1ccc(Cl)cc1)c1ccc(Cl)cc1)C(F)(F)F [Example 4, 3-[Bis-(4-chloro-phenyl)-methanesulfonyl]-1,1,1-trifluoro-propan-2-one] | – | 60 to 62 °C | 175 nM | ~100% | ~47 h | 495 nM | – | – | Vd ([1]; rat, in vivo, iv, 0.5 mg/kg): ~0.2 L/kg; clearance ([1]; rat, in vivo, iv, 0.5 mg/kg): ~0.06 mL/min/kg; mean peak plasma levels ([1]; rat, in vivo, po, 1 mg/kg): 6 µg/mL; time of peak plasma levels after dosing ([1]; rat, in vivo, po, 1 mg/kg): approximately 2.5 hours
O=C(CF)CS(=O)(=O)C(c1ccc(Cl)cc1)c1ccc(Cl)cc1 [Example 7, 3-[Bis-(4-chloro-phenyl)-methanesulfonyl]-1-fluoro-propan-2-one] | – | 55 to 58 °C | 101 nM | < 10% | 1.5 h | 423 nM | 0.359 µg/mL | 15 min | decrease in concentrations within 2 hours after dosing ([1]; rat, in vivo, iv, 1 mg/kg): > 100 fold; time for which plasma concentrations were measurable after dosing ([1]; rat, in vivo, po, 5 mg/kg): 4 h
O=C(CS(=O)(=O)C(c1ccc(Cl)cc1)c1ccc(Cl)cc1)C(F)F [Example 8, 3-[Bis-(4-chloro-phenyl)-methanesulfonyl]-1,1-difluoro-propan-2-one] | – | – | 88 nM | ~43% | 7 h | 108 nM | about 7 μg/mL | 30 to 60 min | Vd ([1]; rat, in vivo, iv, 1 mg/kg): 0.28 L/kg; clearance ([1]; rat, in vivo, iv, 1 mg/kg): 0.75 mL/min/kg
COC(=O)CS(=O)(=O)C(c1ccc(Cl)cc1)c1ccc(Cl)cc1 [[Bis-(4-chloro-phenyl)-methanesulfonyl]-acetic acid methyl ester, reference compound] | below the lower limit of quantitation | – | – | – | – | – | – | – | IC50 [3]: 7320 nM; IC50 ([4]; Homo sapiens, THP-1, 0.5 h): 150 nM
